Test results published in patent publication US20030130169A1, “Methods of treating drug-resistant bacterial infections” (priority 2001, published 2003).

Columns and labels:
[1] = test system: RepA-LacZ (SLI-SLIII interaction of RepA mRNA), plasmid pMU1550; experiment: RepA-LacZ reporter gene assay; assay type: cell-based; conditions: E. coli JP3923 harboring pMU1550, various concentrations, OD600 ~0.6
Method: Small molecules were tested for their ability to imitate the function of RNA I by binding to the RepA mRNA and disrupting the Stem Loop I-Stem Loop III (SLI-SLIII) loop-loop interaction, thus mimicking plasmid incompatibility. Aminoglycosides and their derivatives were selected for testing because of their ability to tightly bind RNA from a variety of sources, particularly regions of distorted RNA secondary structure, such as RNA loops or bulges.
To assess their ability to disrupt the SLI-SLIII interaction in vivo, small molecules were assessed using a RepA-LacZ reporter gene assay. To conduct the assay, the gene encoding β-galactosidase was fused to the RepA gene, incorporated into commercially available plasmid pMU1550. E. coli JP3923 harboring plasmid pMU1550 was grown in minimal media (MM)/Tm([…]) in the presence of various concentrations of the small molecules under evaluation. After reaching the appropriate optical density (˜OD600=0.6), Miller units of b-galactosidase were quantitated as per the standard protocol (see Miller, J. H, Experiments in Molecular Genetics, 1972, p352-355, Cold Spring Harbor Laboratory, Cold Spring Harbor, N.Y.). Any perturbation causing lower RepA production leads to a lowering of the β-galactosidase units upon quantitation A positive control utilizing a plasmid (pMU662) that overexpresses RNAII (containing the SLI-SLIII stretch) gave the expected high b-galactosidase signal. Each experiment was performed on at least three separate occasions.
In a second control, erythromycin A, a general translation inhibitor, was tested using the reporter gene assay.
These experiments gave the expected results.

[2] = test system: plasmids differing in copy numbers, size and nature of replication; conditions: cited from earlier work
[3] = test system: IncB plasmid pMU2403 encoding β-lactamase; experiment: Assessment of plasmid elimination (master/replica plating); assay type: cell-based, E. coli strain JP4821; conditions: 25 μg/mL apramycin
Method: The anti-plasmid effect of apramycin, paromomycin I and kanamycin B was assessed. In general, plasmid-containing E. coli resistant to ampicillin were cultured using growth media containing subinhibitory (sublethal) amounts of each of these compounds. The bacteria were allowed to reproduce for a defined number of generations, after which the bacteria were plated out onto agar plates containing the tested small molecules. Replicas were then made onto plates containing the tested small molecules and the antibiotic, ampicillin. Colonies that appeared on the master plate, but not the replicas had been rendered sensitive to ampicillin
In particular, E. coli strain JP4821 containing the commercially available IncB plasmid pMU2403, which encodes for β-lactamase, was grown in MM in the presence of 25 μg/mL apramycin for a defined number of generations. Typically, samples of the bacteria were plated out onto LB/Apra^25 plates after 10-12 generations, and replica plates were then made onto LB/Apra^25/Amp^100 plates. Percentage of plasmid lost was calculated by counting the number of colonies successfully replicated and dividing by the total number of colonies on the master plate; the entire plasmid loss assay was performed on two separate occasions. On average, greater than 200 master plate colonies were used for each of these evaluations. Evaluations of paromomycin I and kanamycin B were performed in an analogous fashion, with paromomycin I at 15 mg/mL, and kanamycin B at 10 mg/mL.
To confirm that antibiotic sensitivity was due to plasmid loss, plasmid preparations were performed to isolate plasmid from the non-replicating colonies on the master plate, and from control colonies. No plasmids were isolated from the non-replicating colonies, while plasmid was successfully isolated from the control colonies that did replicate.

[4] = molecular target: SLI-SLIII loop-loop complex; experiment: In vitro SLI-SLIII loop-loop disruption assay (displacement of fluorescein-labeled SLIII from bead-bound SLI); assay type: binding; conditions: biotinylated SLI on streptavidin agarose bead, fluorescein-labeled SLIII displaced; read-out: Kd for disrupting the SLI-SLIII interaction
Method: To further investigate the mechanism by which apramycin causes plasmid elimination, the SLI-SLIII loop-loop interaction was reconstituted in vitro. SLI was biotinylated and bound to a streptavidin coated agarose bead. Fluorescein-labeled SLIII was added to form the loop-loop complex. This complex was then incubated with varous concentrations of apramycin and the amount of SLIII displaced by apramycin was assessed by quantitation of the fluorescence in solution. These experiments indicate that apramycin is disrupting the SLI-SLIII interaction with a Kd of 1 μM.

SLIII = experiment: Direct binding to fluorescein-labeled RNA (fluorescence titration); conditions: various apramycin concentrations
Method: (§1) The direct binding of apramycin to SLI and SLIII was then assessed in vitro using fluorescently-labeled RNAs.
(§2) For these experiments, RNA oligonucleotides were obtained from Dharmacon Research (Lafayette, Colo.), and were deprotected according to the manufacturer's protocol. The sequence of FI-SLI is FI.C.G.CCA.UAA.GCG.ACA.GCU.UGU.GGC. The sequence of FI-SLIII is FI.UAU.UUU.UCC.UCG.AAC.UUG.GCG.GAA.CGC.AGA.AAA.AUA. All fluorescence measurements were performed on an ISS PC1 spectrofluorometer with slitwidths and lamp current optimized for sufficient signal counts at the given RNA-fluorescein concentration. Deprotected RNA oligonucleotides were made up to 1 mM in 50 mM Tris-HCl, pH 7.3, and folded by heating to 90° C. for 3 min, then slowly cooling to rt. To assess the binding of apramycin to the fluorescently-labeled RNAs, […] of the folded RNA was transferred to a 4×10×48 mm fluorescence cuvette (Starna Cells) and allowed to equilibrate to 37° C. in the spectrofluorometer's sample chamber for 15 minutes. Apramycin was added in […] portions from a stock solution, and a minimum of 5 minutes was allotted for equilibration. Three fluorescence spectra were acquired at each apramycin concentration. The spectra were taken with a 490 nm excitation wavelength and emission intensity was measured from 510-540 nm at an interval of one nanometer. At each point along the spectrum, an average of 3 data points was taken to give an averaged intensity at that integral wavelength. In processing the spectra, the point at 523 nm was chosen as a representative wavelength to monitor change in intensity over a range of apramycin concentrations. The 523 nm data points from each of the three averaged spectra were averaged at each apramycin concentration to give a composite average of nine measurements at 523 nm at each apramycin concentration. All intensity measurements are reported uncorrected for dilutions, as volume change over the course of the experiment is minimal.

SLI = experiment: as above
Method: as §1, §2

CC[C@H]1OC(=O)[C@H](C)[C@@H](O[C@H]2C[C@@](C)(OC)[C@@H](O)[C@H](C)O2)[C@H](C)[C@@H](O[C@@H]2O[C@H](C)C[C@H](N(C)C)[C@H]2O)[C@](C)(O)C[C@@H](C)C(=O)[C@H](C)[C@@H](O)[C@]1(C)O [Erythromycin A, erythromycin A]
reporter gene signal (Miller units of β-galactosidase) [1]: no effect

N[C@@H]1[C@H]2CN(c3nc4c(cc3F)c(=O)c(C(=O)O)cn4-c3ccc(F)cc3F)C[C@@H]12 [Trovafloxacin]
plasmid curing effect [2]: plasmid curing

CN[C@@H]1[C@@H](O[C@H]2O[C@H](CO)[C@@H](N)[C@H](O)[C@H]2O)OC2C[C@@H](N)[C@@H](O[C@H]3[C@H](O)[C@@H](O)[C@H](N)C[C@@H]3N)OC2[C@@H]1O (stereo partly drawn) [apramycin]
reporter gene signal (Miller units of β-galactosidase) [1]: dose dependent decrease | plasmid elimination ([3]; after 220 generations): virtually complete elimination | plasmid elimination ([3]; overall conclusion): virtually complete elimination of plasmid | sensitization of bacteria to ampicillin ([3]; replica plates LB/Apra25/Amp100): sensitizes the bacteria to ampicillin | Kd [4]: 1000 nM | change in fluorescence of labeled SLIII (SLIII): no significant change in fluorescence | Kd (SLI; 50 mM Tris-HCl pH 7.3, 37° C., read-out: Kd of apramycin-SLI interaction): 200 nM | change in fluorescent signal of labeled SLI (SLI; various apramycin concentrations): significant decrease

NC[C@H]1O[C@H](O[C@H]2[C@H](O)[C@@H](O[C@H]3O[C@H](CO)[C@@H](O)[C@H](N)[C@H]3O)[C@H](N)C[C@@H]2N)[C@H](N)[C@@H](O)[C@@H]1O [kanamycin B]
reporter gene signal (Miller units of β-galactosidase) [1]: dose dependent decrease

NC[C@@H]1O[C@H](O[C@H]2[C@@H](O)[C@H](O[C@@H]3[C@@H](O)[C@H](N)C[C@H](N)[C@H]3O[C@H]3O[C@H](CO)[C@@H](O)[C@H](O)[C@H]3N)O[C@@H]2CO)[C@H](N)[C@@H](O)[C@@H]1O [paromomycin I]
reporter gene signal (Miller units of β-galactosidase) [1]: dose dependent decrease
